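Growth conditions: 96-well plates. Treatment: test compound, 48 hours, 5 concentrations. Analysis: linear interpolation between bracketing concentrations; unreached endpoints set to highest concentration. GI50 marks 50% less growth. TGI: total growth inhibition.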
Key:
Experiment in all cases: NCI tumour cell line growth inhibition, 48 h
SF-268 CNS = test system: SF-268 CNS
SNB-75 CNS = test system: SNB-75 CNS
ACHN renal = test system: ACHN renal
HCC-2998 colon = test system: HCC-2998 colon
SK-MEL-5 melanoma = test system: SK-MEL-5 melanoma
RPMI-8226 leukemia = test system: RPMI-8226 leukemia
M14 melanoma = test system: M14 melanoma
SR leukemia = test system: SR leukemia

SMILES	GI50 (SF-268 CNS) [µM]	TGI (SF-268 CNS) [µM]	GI50 (SNB-75 CNS) [µM]	TGI (SNB-75 CNS) [µM]	GI50 (ACHN renal) [µM]	TGI (ACHN renal) [µM]	GI50 (HCC-2998 colon) [µM]	TGI (HCC-2998 colon) [µM]	GI50 (SK-MEL-5 melanoma) [µM]	TGI (SK-MEL-5 melanoma) [µM]	GI50 (RPMI-8226 leukemia) [µM]	TGI (RPMI-8226 leukemia) [µM]	GI50 (M14 melanoma) [µM]	TGI (M14 melanoma) [µM]	GI50 (SR leukemia) [µM]	TGI (SR leukemia) [µM]
Nc1ncnc2c1ncn2Cc1ccc(C23CC4CC(CC(C4)C2)C3)c(OCc2cc(F)c(F)cc2F)c1	8.57	> 100	> 100	> 100	5.74	> 100	6.26	57.8	0.955	> 100						
CC(=O)CCc1ccc(OC2OC(COC(=O)c3cc(O)c(O)c(O)c3)C(O)C(O)C2OC(=O)/C=C/c2ccccc2)cc1 (centres undefined)	19.3	49.4			25.6	75.4	15.3	30.2	19.1	36.1	23.7	85.3	18.6	37.4		
CC(C)(O)C#Cc1ccc(/C=C/C(=O)c2ccccc2)s1	16.7	32.8	13.7	27	17	30.7	16.6	30.7	16.1	30.5	3.07	11.5			3.85	13.8
N#C/C(=N\Nc1ccc(Cl)cc1)C(=O)Nc1cc(-c2ccccc2)nn1-c1ccccc1	2.65	> 100			2.84	> 100	3.74	> 100	1.63	4.27	1.77	6.67	3.7	> 100	3.59	> 100
COc1cc(-c2nc3sccn3c2-c2ccnc(NCCNS(=O)(=O)c3ccc(Cl)cc3)n2)ccc1F	5.75	> 100	4.48	> 100	2.77	> 100	5.82	> 100	1.87	4.19			3.62	> 100	3.94	> 100
C#CCN(Cc1nc2cc(C(F)(F)F)ccc2nc1-c1ccccc1)c1ccc(OC(F)(F)F)cc1	47.5	> 100	> 100	> 100	50.2	> 100	30.3	91.9	34	> 100	23.3	> 100	50.3	> 100		
COc1cc(C(=O)N2N=C(c3ccc(S(C)(=O)=O)cc3)CC2c2ccco2)cc(OC)c1OC (centres undefined)	8.93	> 100	2.91	> 46	5.76	> 100	21	> 100	2.99	> 63.2	0.647	4.36	5.81	> 87.6		
C=C(C)C1Cc2c(cc(OC)c3c(=O)c4cccc(O)c4oc23)O1 (centres undefined)		43.4		29.9		32.1		> 100		30.1				50.8		> 100
CCOc1ccccc1NC(=O)c1cc2ccccc2cc1O	3.91	20.4	2.89	15.8	2.96	10.3	4	15.6	1.82	3.7	2.04	6.56	3.15	11		
Cc1nc(-c2ccccc2)c(Cc2ccccc2O)c(=O)[nH]1		> 100		97.9		> 100				> 100		> 100		> 100		> 100
O=c1cc(-c2ccccc2)oc2cc(O)c(O)c(O)c12	4.55	29.6	> 100	> 100	9.32	> 100	15	37.9	9.47	45.3	9.27	> 100	22.9	92.2		
CCC1C(=O)OCc2c1cc1n(c2=O)Cc2cc3ccccc3nc2-1 (centres undefined)		> 100		25.9		> 100		> 100		32.1		> 100		13.7		
Cc1ccc(NC(=O)Cc2ccc(/C=C/C(=O)c3ncc[nH]3)cc2)cc1	5.32	> 25	7	> 25	6.51	21.4	6.73	> 25	18.3	> 25	1.79	11.8			0.992	> 25
Nc1cc(C(=O)O)[nH]c(=O)n1		> 100				> 100		> 100		> 100		> 100		> 100		> 100
COc1cc2c3c(n(CCCN(CCN)CCCn4c5c(c6cc(OC)c(OC)cc6c4=O)C(=O)c4cc6c(cc4-5)OCO6)c(=O)c2cc1OC)-c1cc2c(cc1C3=O)OCO2	0.794	> 29.3	2.54	> 100	0.376	3.02	0.407	5.98	1.04	3.34			0.752	18.3		

Reference: PubChem BioAssay (NCI)
